For assay [1], the target named is T1, fibroblast growth factor-1 (FGF-1) (Homo sapiens, UniProt P05230). Briefly: FGF-1 induced mitogenesis in quiescent Balb/c 3T3 fibroblasts. The class given is cell-based. The settings on record: potassium salts, except 2-acetoxy-5-hydroxybenzene sulfonate as calcium salt. The protocol:
The evaluated compounds were used in the form of potassium salt, except in the first case in which calcium salt was used. The experiments were carried out as described in Fernández-Tornero C et al. J Biol Chem, 2003.

The test system of the next assay is rat glioma C6 cells. Briefly: Proliferation of rat glioma C6 cells (crystal violet). The format is cell-based. The following applies: 500 μM, 48 h. The protocol: FIG. 23. […] 5A-2HBS and 2A-5HBS were administered or not (control) after seeding C6 cells in 24 well plates (10^4 per well) until they were fixed 48 hours later. Data are expressed as the mean±SEM of the percentage of absorbance at 595 nm obtained in control cultures, which is proportional to the number of cells stained with crystal violet. Data were obtained from 3 cultures for each treatment and 6 control cultures.
The cell line used was the C6 cell line. The cells were cultured as previously described (Cuevas P et al., Neurol Res 2005, 27:797-800). The cells were cultured as adherent cells in Dulbecco's modified Eagle's medium, supplemented with 7.5% (v/v) fetal bovine serum, 10 μg/ml streptomycin and 10 units/ml penicillin. The tumor cells were seeded in 24-well plates at a density of 10,000 cells/well, and were incubated at 37° C. in a humidified chamber with 5% CO2. Once adhered, the cells were treated or not (controls) with (5A-2HBS) (500 μM) or (2A-5HBS) (500 μM) and they were allowed to proliferate for 48 h. After this time the glioma cell proliferation was evaluated by means of staining the fixed cells with crystal violet. The number of cells is proportional to the amount of retained dye, which was determined spectrophotometrically by measuring the absorbance at 595 nm once the dye was extracted from the cells.

Assay [2] deals with T1, fibroblast growth factor-1 (FGF-1). Briefly: Co-crystal structure with fibroblast growth factor-1. The class given is binding. The settings on record: for binding site on FGF-1: crystal diffraction of the complex; for acetoxyl groups of the compound when bound to FGF-1: crystal diffraction, electron density contoured at 1σ. The text has this:
FIG. 24. 2-acetoxy-5-hydroxybenzenesulfonic acid co-crystallized with fibroblast growth factor-1. […] The compound occupies a place that is very close to that described occupied by 2,5-dihydroxybenzenesulfonic acid, the aromatic ring of which forms a cation-π bond with the N^ε group of lysine 132, which is marked in panel A as reference. […] In panels A and B, the protein surface is colored according to its electrostatic potential (light grey: negative charge; dark grey: positive charge; white: lack of charge).
FIG. 25. 5-acetoxy-2-hydroxybenzenesulfonic acid co-crystallized with fibroblast growth factor-1. […] The compound occupies a place that is very close to that described occupied by 2,5-dihydroxybenzenesulfonic acid, the aromatic ring of which forms a cation-π bond with the N^ε group of lysine 132, which is marked in panel A as reference. […] In panels A and B, the protein surface is colored according to its electrostatic potential (light grey: negative charge; dark grey: positive charge; white: lack of charge).
FIG. 26. 2,5-diacetoxybenzenesulfonic acid co-crystallized with fibroblast growth factor-1. […] The compound occupies a place that is very close to that described occupied by 2,5-dihydroxybenzenesulfonic acid, the aromatic ring of which forms a cation-π bond with the N^ε group of lysine 132, which is marked in panel A as reference. […] In panels A and B, the protein surface is colored according to its electrostatic potential (light grey: negative charge; dark grey: positive charge; white: lack of charge).
Based on the crystal diffraction of the FGF-1:2-acetoxy-5-hydroxybenzene sulfonic acid, FGF-1:5-acetoxy-2-hydroxybenzene sulfonic acid and FGF-1:2,5-diacetoxybenzene sulfonic acid complexes, the structures of the complexes were calculated and represented. FIGS. 24, 25 and 26, which show the surface of the dyed protein according to its electrostatic potential (light grey: negative charge; dark grey: positive charge; white: lack of charge), show the manner in which 2-acetoxy-5-hydroxybenzene sulfonic acid, 5-acetoxy-2-hydroxybenzene sulfonic acid and 2,5-diacetoxybenzene sulfonic acid interact, respectively, with FGF-1.

The subject of assay [3] is human retinal endothelial cells (HREC). As to the kind of experiment: Proliferation of human retinal endothelial cells (crystal violet). The class given is cell-based. The settings on record: 72 hours. How it is done:
(§1) Primary cultures of human retinal endothelial cells (HREC) were used. Cells were obtained from Cell Systems (Virginia, USA) and subcultured with CSC complete medium (Cell Systems). Cells at 2 to 5 passages were seeded in 24-well plates at 7,500 cells/well density and, once attached, the cells were treated or not treated (controls) with 2A-5HBS (500 and 1000 μM) or 5A-2HBS (500 and 1000 μM) and they were allowed to proliferate for 72 hours, with daily medium changes. After that, the proliferation of HREC was evaluated by staining the fixed cells with crystal violet. The number of cells is proportional to the amount of retained dye, which was spectrophotometrically determined by measuring absorbance at 595 nm after removing the dye from the cells. Data are expressed as the percentage of absorbance at 595 nm obtained in control conditions. Data were obtained from two different experiments performed in triplicate.
as §1, with “2,5-DHCME (50” for “2A-5HBS (500”, “100” for “1000 μM) or 5A-2HBS (500 and 1000”, “changes. Under the same conditions, other cultures were treated with calcium 2,5-dihydroxybenzenesulfonate (DHBS; 100 μM) for comparison.” for “changes.”

Assay [4] relates to corneal neovascularization. As to the kind of experiment: Topical solution in a patient with corneal neovascularization. The format is in vivo, human. The following applies: 5% solution of potassium salt, 4 drops a day topically, 19 days, one patient. The text has this:
Photographs showing the presence of corneal neovascularization in a patient before being treated (A) and after 19 days of topical application of a solution containing 5% of potassium 2,5-dihydroxybenzoate (B). The treatment consisted of daily topical application of 4 drops of such solution.
4 drops a day were topically applied in a patient that presented a corneal neovascularization process refractory to any type of previous treatment.

T1 sequence (P05230 whole entry, species assumed): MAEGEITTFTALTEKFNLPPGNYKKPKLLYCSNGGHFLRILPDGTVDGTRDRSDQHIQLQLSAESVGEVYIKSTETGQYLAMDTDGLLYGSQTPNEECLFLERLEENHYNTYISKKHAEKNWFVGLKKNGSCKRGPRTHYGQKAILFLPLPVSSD

For the compound `CC(=O)Oc1ccc(O)cc1S(=O)(=O)[O-].[K+]` [2A-5HBS, potassium 2-acetoxy-5-hydroxybenzene sulfonate], the FGF-1 induced mitogenesis entry in assay [1] is on record as “Inhibition of FGF-1 induced mitogenesis was observed”. Further, the “C6 glioma cell proliferation” value in the assay on rat glioma C6 cells is on record as “inhibition of rat glioma cell proliferation”. Moreover, in assay [2], the “binding site on FGF-1” value is reported as “very close to the one that has been described occupied by 2,5-dihydroxybenzene sulfonic acid” and the “acetoxyl groups of the compound when bound to FGF-1” value was “conserve the acetoxyl groups”. The HREC proliferation result in assay [3] (500 μM) was “significant inhibition of HREC proliferation”. The HREC proliferation entry in assay [3] (1000 μM) is “significant inhibition of HREC proliferation”.
With `COC(=O)C=Cc1cc(O)ccc1O` [2,5-DHCME, 2,5-dihydroxycinnamic acid methyl ester], the HREC proliferation result in assay [3] (50 μM) was “significant inhibition of HREC proliferation”; in assay [3] (100 μM, DHBS as calcium salt), “significant inhibition of HREC proliferation”.
Take `CC(=O)Oc1ccc(O)c(S(=O)(=O)[O-])c1.[K+]` [5A-2HBS, potassium 5-acetoxy-2-hydroxybenzene sulfonate]: the FGF-1 induced mitogenesis result in assay [1] is “Inhibition of FGF-1 induced mitogenesis was observed”. For the same compound, the “C6 glioma cell proliferation” value with rat glioma C6 cells is given as “inhibition of rat glioma cell proliferation”. Also, in assay [2], the “binding site on FGF-1” value is listed as “very close to the one that has been described occupied by 2,5-dihydroxybenzene sulfonic acid” and the “acetoxyl groups of the compound when bound to FGF-1” value is reported as “conserve the acetoxyl groups”.
Consider `O=C([O-])c1cc(O)ccc1O.[K+]` [2,5-dihydroxybenzoate, potassium 2,5-dihydroxybenzoate], for which, in assay [4], the “degree of corneal vascularization” value is given as “remarkable reduction in the degree of corneal vascularization”.

The record behind these values is patent US9198886B2, “Use of 2,5-dihydroxybenzene for the treatment of ocular diseases” (priority 2006, dated 2015).
